Patent publication US11076595B2, “1-(n,n-disubstituted carbamoyl) 4-(substituted sulfonyl)triazolin-5-one derivative, 4-(n,n-disubstituted carbamoyl) 1-(substituted sulfonyl)triazolin-5-one derivative, and herbicide containing said derivative as active ingredient” (HOKKO CHEMICAL INDUSTRY CO., LTD., priority 2017, dated 2021)

Columns and labels:
Format in all cases: in vivo
Echinochloa crus-galli [1] = assay: Test Example 11: herbicidal effect test by soil treatment in paddy field; conditions: 120 g/10a active ingredient, 14 days after treatment
In short: (§1)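 Pre-emergence paddy test, 120 g a.i./10 are, emulsifiable concentrate diluted in water and added dropwise to ~3 cm flood water right after sowing (30 seeds/species, 0–1 cm depth, fertilized puddled soil). Greenhouse; 2 replicates; dry-weight suppression (%) vs untreated, day 14.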

Lindernia pyxidaria [2] = assay: as above; conditions: 120 g/10a active ingredient, 14 days after treatment
In short: as §1

Monochoria vaginalis [3] = assay: as above; conditions: 120 g/10a active ingredient, 14 days after treatment
In short: as §1

Scirpus juncoides [4] = assay: as above; conditions: 120 g/10a active ingredient, 14 days after treatment
In short: as §1

Echinochloa crus-galli [5] = assay: Test Example 12: herbicidal effect test by treatment during growing period in paddy field; conditions: 120 g/10a; treatment seven days after sowing in flooded paddy pot; assessed 14 days after treatment
In short: (§2)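 Weed suppression (%) = (1 − treated/untreated mean dry weight) × 100, scored 14 days after treatment with two replicates per plot. Dose 120 g a.i. per 10 are, as diluted emulsifiable concentrate added dropwise to flooded pots (water about 3 cm) 7 days post-sowing, seeds at 0-1 cm.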

Lindernia pyxidaria [6] = assay: as above; conditions: 120 g/10a; treatment seven days after sowing in flooded paddy pot; assessed 14 days after treatment
In short: as §2

Monochoria vaginalis [7] = assay: as above; conditions: 120 g/10a; treatment seven days after sowing in flooded paddy pot; assessed 14 days after treatment
In short: as §2

Scirpus juncoides [8] = assay: as above; conditions: 120 g/10a; treatment seven days after sowing in flooded paddy pot; assessed 14 days after treatment
In short: as §2

Chenopodium album = assay: Test Example 14: herbicidal effect test by foliage treatment in upland field; conditions: 7 days after sowing, 120 g/10a, 14 days after treatment
Method: (§3) A pot having a size of 36 cm^2 was filled with field soil (alluvial soil) and after uniformly mixing the soil of the surface layer of 1 cm with 20 grains of each weed seed of crabgrass, Echinochloa crus-galli, Chenopodium album and Amaranthus viridis, the surface layer was pressed lightly. Seven Days after the sowing, an emulsifiable concentrate prepared according to Formulation Example 15 by using the compound shown in Table 12 below was diluted with water, and the water-diluted formulation was sprayed on the soil surface at a ratio of 100 liter per 10 are. The application rate of the active ingredient, by conversion, corresponded to 120 g per 10 are. Fourteen Days after the formulation treatment, the herbicidal effect was evaluated by the same criteria as in Test Example 11.

crabgrass = assay: as above; conditions: 7 days after sowing, 120 g/10a, 14 days after treatment
Method: as §3

Amaranthus viridis = assay: as above; conditions: 7 days after sowing, 120 g/10a, 14 days after treatment
Method: (§4) This test was performed with two replications per one formulation concentration plot, and 14 days after the formulation treatments, the weed suppression rate (%) was determined according to the following equation (Math. 2). Weed suppression rate (%)=(1−average dry weight (g) of plants in treated plots/average dry weight (g) of plants in untreated plots)×100 [Math. 2]
as §3

Echinochloa crus-galli [9] = assay: as above; conditions: 7 days after sowing, 120 g/10a, 14 days after treatment
Method: as §4, §3

Structure (SMILES) | Weed suppression rate (%) Echinochloa crus-galli (Echinochloa crus-galli [1]) | Weed suppression rate (%) Lindemia pyxidaria (Lindernia pyxidaria [2]) | Weed suppression rate (%) Monochoria vaginalis (Monochoria vaginalis [3]) | Weed suppression rate (%) Scirpus juncoides (Scirpus juncoides [4]) | Weed suppression rate (%) Echinochloa crus-galli (Echinochloa crus-galli [5]) | Weed suppression rate (%) Lindemia pyxidaria (Lindernia pyxidaria [6]) | Weed suppression rate (%) Monochoria vaginalis (Monochoria vaginalis [7]) | Weed suppression rate (%) Scirpus juncoides (Scirpus juncoides [8]) | herbicidal effect, Chenopodium album (Chenopodium album) | herbicidal effect, Crabgrass (crabgrass) | herbicidal effect, Amaranthus viridis (Amaranthus viridis) | herbicidal effect, Echinochloa crus-galli (Echinochloa crus-galli [9])
CC(C)N(C(=O)n1cnn(S(=O)(=O)C(C)C)c1=O)c1ccccc1F [Compound 11-49] | 90% | 80% | 80% | 90% | 100% | 90% | 90% | 90% | 80% | 90% | 90% | 80%
CC(C)N(C(=O)n1cnn(S(=O)(=O)c2ccccc2F)c1=O)c1ccccc1 [Compound 11-391] | 90% | 80% | 60% | 80% | 90% | 80% | 80% | 80% | 40% | 90% | 40% | 60%
CC(C)N(C(=O)n1cnn(S(=O)(=O)C2CCCCC2)c1=O)c1cccc(F)c1F [Compound 11-293] | 100% | 100% | 100% | 100% | 100% | 100% | 100% | 100% | 70% | 100% | 60% | 90%
CC(C)N(C(=O)n1cnn(S(=O)(=O)c2cccs2)c1=O)c1ccccc1 [Compound 11-1011] | 90% | 80% | 80% | 90% | 90% | 80% | 80% | 90% | 80% | 90% | 90% | 80%
CC(C)N(C(=O)n1cnn(S(=O)(=O)C(C)C)c1=O)c1ccc(Cl)cc1Br [Compound 11-71] | 100% | 90% | 70% | 100% | 100% | 70% | 70% | 100% | 70% | 100% | 60% | 100%
CC(C)N(C(=O)n1cnn(S(C)(=O)=O)c1=O)c1c(F)c(F)cc(F)c1F [Compound 11-17] | 100% | 90% | 80% | 100% | 100% | 70% | 100% | 100% | 30% | 60% | 100% | 70%
Cc1cc(Cl)ccc1N(C(=O)n1cnn(S(=O)(=O)C(C)C)c1=O)C(C)C [Compound 11-74] | 90% | 80% | 80% | 90% | 90% | 80% | 80% | 90% | 80% | 90% | 90% | 80%
CC(C)N(C(=O)n1cnn(S(=O)(=O)c2cccc(C(F)(F)F)c2)c1=O)c1ccc(Cl)cc1Br [Compound 11-735] | 100% | 90% | 90% | 100% | 100% | 90% | 90% | 100% | 70% | 100% | 70% | 60%
CC(C)N(C(=O)n1cnn(S(=O)(=O)C(C)C)c1=O)c1ccc(Cl)cc1F [Compound 11-67] | 100% | 90% | 90% | 90% | 100% | 90% | 90% | 90% | 60% | 90% | 60% | 90%
CC(C)N(C(=O)n1cnn(S(=O)(=O)C2CC2)c1=O)c1ccc(F)cc1Cl [Compound 11-205] | 100% | 100% | 90% | 100% | 100% | 80% | 100% | 100% | 70% | 100% | 70% | 100%
C=CS(=O)(=O)n1ncn(C(=O)N(c2ccc(F)cc2F)C(C)C)c1=O [Compound 11-134] | 70% | 40% | 40% | 40% | 70% | 40% | 40% | 40% | 40% | 70% | 40% | 40%
